Assay results reported in ChEMBL document CHEMBL1201862, “PubChem BioAssay data set” (2004).
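These data come from cells grown in 96-well plates and exposed to compound for 48 hours at five concentrations. Here, GI50 denotes the concentration required for 50% inhibition of growth.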 Active and inactive are the calls of the source. No stated cut-off is given here; in the data, active = GI50 up to about 1.1 µM and inactive = higher.

What was measured:
Assay in all cases: NCI tumour cell line growth inhibition, 48 h
Hs-578T = test system: Hs-578T
T47D = test system: T47D
KM-20L2 = test system: KM-20L2
DMS-114 = test system: DMS-114
SNB-78 = test system: SNB-78
DMS-273 = test system: DMS-273
HOP-18 = test system: HOP-18
XF498 = test system: XF498

Q: Which results are given for CC(C)N(CC(=O)O)CC(=O)O?
A: GI50 (Hs-578T): > 100 µM (inactive); GI50 (T47D): > 100 µM (inactive)

Q: Which GI50 (Hs-578T) does the source give for CC(=O)OCC1OC(n2c(N)c(C#N)c(-c3cccc(Cl)c3)c(C#N)c2=S)C(OC(C)=O)C(OC(C)=O)C1OC(C)=O (stereo not given) here?
A: 20 µM (inactive)

Q: What about the GI50 (T47D) of the same compound?
A: 18.9 µM (inactive)

Q: O=C1CC(C(OCc2ccccc2)C(OCc2ccccc2)C(OCc2ccccc2)C(COCc2ccccc2)OCc2ccccc2)CC(=O)N1 (stereo not given) was tested. Which GI50 (Hs-578T) did it give?
A: > 100 µM (inactive)

Q: What does the source list for C(=N\N=C1NCCCN1)/c1ccc2ccccc2c1?
A: GI50 (Hs-578T): 16.9 µM (inactive); GI50 (T47D): 10.4 µM (inactive)

Q: COC(=O)C1C2C=CC(C2)N1S(=O)(=O)c1ccccc1 (stereo not given) was tested. Which GI50 (T47D) did it give?
A: > 100 µM (inactive)

Q: What does the source list for COC(=O)C1CC2C=CC=CC(=O)C2(C)C1 (stereo not given)?
A: GI50 (KM-20L2): > 100 µM (inactive); GI50 (DMS-114): 40.4 µM (inactive); GI50 (SNB-78): 30.7 µM (inactive)

Q: CCOC(=O)C(=O)/C=C(\C)Nc1c(NC2OCC(OC(C)=O)C(OC(C)=O)C2OC(C)=O)nc(SC)[nH]c1=O (stereo not given) was tested. Which GI50 (DMS-273) did it give?
A: > 100 µM (inactive)

Q: And the GI50 (KM-20L2)?
A: > 100 µM (inactive)

Q: What about the GI50 (HOP-18) of the same compound?
A: > 100 µM (inactive)

Q: What about the GI50 (XF498) of the same compound?
A: > 100 µM (inactive)

Q: And the GI50 (DMS-114)?
A: > 100 µM (inactive)

Q: Which GI50 (Hs-578T) does the source give for O=C(O)CCC(C(=O)O)N1C(=O)C2C3CCC(C3)C2C1=O (stereo not given) here?
A: > 100 µM (inactive)

Q: What about the GI50 (T47D) of the same compound?
A: > 100 µM (inactive)

Q: Which GI50 (Hs-578T) does the source give for C1=N\CCNCC/N=C\c2ccc(cc2)OCc2cccc(n2)COc2ccc/1cc2 here?
A: 23.5 µM (inactive)

Q: What about the GI50 (T47D) of the same compound?
A: > 100 µM (inactive)

Q: Which GI50 (DMS-273) does the source give for CC(C)N(C(=O)C12C3C4C1C1C2C3C41C(O)C(C)(C)C)C(C)C (stereo not given) here?
A: > 50 µM (inactive)

Q: What about the GI50 (KM-20L2) of the same compound?
A: > 50 µM (inactive)

Q: And the GI50 (XF498)?
A: > 50 µM (inactive)

Q: What about the GI50 (DMS-114) of the same compound?
A: > 50 µM (inactive)

Q: What about the GI50 (SNB-78) of the same compound?
A: > 50 µM (inactive)

Q: Which results are given for CC[N+](CC)(CC)Cc1cc2ccccc2n1C(=O)OC?
A: GI50 (DMS-273): > 100 µM (inactive); GI50 (KM-20L2): > 100 µM (inactive); GI50 (XF498): > 100 µM (inactive); GI50 (DMS-114): > 100 µM (inactive)

Q: Which results are given for COc1ccc(/C=C2/S/C(=N\c3ccccc3)N(NC(=O)Cc3ccccc3)C2=O)c(OC)c1?
A: GI50 (Hs-578T): > 100 µM (inactive); GI50 (T47D): 43.9 µM (inactive)

Q: COC(=O)c1ccc(C)cc1CC1Cc2c(C)cccc2C1=O (stereo not given) was tested. Which GI50 (Hs-578T) did it give?
A: 8.55 µM (inactive)

Q: And the GI50 (T47D)?
A: 7.93 µM (inactive)

Q: O=C(/C=C1\Nc2ccccc2N=C1NC12CC3CC(CC(C3)C1)C2)c1ccc(Br)cc1 was tested. Which GI50 (Hs-578T) did it give?
A: > 10 µM (inactive)

Q: And the GI50 (T47D)?
A: > 10 µM (inactive)

Q: With Nc1cc(N2CCOCC2)nc(=O)n1-c1ccc(Cl)cc1 as the compound, how does the GI50 (T47D) read?
A: > 100 µM (inactive)

Q: Which results are given for COc1ccc(Cn2c(=O)c(OS(=O)(=O)C(F)(F)F)c(C)c3cc4ccccc4cc32)cc1?
A: GI50 (Hs-578T): > 100 µM (inactive); GI50 (T47D): > 100 µM (inactive)

Q: For Nc1cc2c3c(cccc3c1)C(=O)N(c1ccc(OCCN3CCCC3)cc1)C2=O, which GI50 (Hs-578T) is on record?
A: 18.7 µM (inactive)

Q: What about the GI50 (T47D) of the same compound?
A: 21.2 µM (inactive)

Q: With CC(=O)Nc1ccc2cc(C#N)c(=O)[nH]c2n1 as the compound, how does the GI50 (T47D) read?
A: > 100 µM (inactive)

Q: What does the source list for CC(C)c1nc(Cl)c(Cl)c(Cl)n1?
A: GI50 (Hs-578T): 2.76 µM (inactive); GI50 (T47D): 4.14 µM (inactive)

Q: What does the source list for CCOC(=O)CCSc1nc2ccc(I)cc2c(=O)n1Cc1ccccc1?
A: GI50 (Hs-578T): 25.2 µM (inactive); GI50 (T47D): 26.9 µM (inactive)

Q: With NC1CC(=O)c2cc(Br)sc21 (stereo not given) as the compound, how does the GI50 (T47D) read?
A: > 100 µM (inactive)

Q: With CCCC/C=C/C/C=C/CCCCCCCCC(=O)OCC1CCCN2CCCCC12 (stereo not given) as the compound, how does the GI50 (Hs-578T) read?
A: > 100 µM (inactive)

Q: What about the GI50 (T47D) of the same compound?
A: 12.8 µM (inactive)

Q: How did the GI50 (DMS-273) turn out when CCc1cccc(C)c1N1C(=O)C(=O)C(c2nc3ccccc3o2)C(=O)C1=O was run?
A: > 100 µM (inactive)

Q: What about the GI50 (KM-20L2) of the same compound?
A: > 100 µM (inactive)

Q: And the GI50 (HOP-18)?
A: > 100 µM (inactive)

Q: And the GI50 (XF498)?
A: > 100 µM (inactive)

Q: And the GI50 (SNB-78)?
A: > 100 µM (inactive)

Q: Which results are given for Nc1ccc(C(=O)N/C(=C\c2cccc([N+](=O)[O-])c2)c2nc3ccccc3[nH]2)cc1?
A: GI50 (DMS-273): 55.2 µM (inactive); GI50 (KM-20L2): > 87.1 µM (inactive); GI50 (XF498): 23.5 µM (inactive); GI50 (DMS-114): 29.4 µM (inactive); GI50 (SNB-78): 57.3 µM (inactive)

Q: For Cc1ccc(NC(=O)CC2SC(Nc3ccc(Cl)cc3)=NC2=O)cc1C (stereo not given), which GI50 (DMS-273) is on record?
A: 19.7 µM (inactive)

Q: What about the GI50 (KM-20L2) of the same compound?
A: 19.1 µM (inactive)

Q: What about the GI50 (HOP-18) of the same compound?
A: 18.5 µM (inactive)

Q: And the GI50 (DMS-114)?
A: 21 µM (inactive)

Q: What about the GI50 (SNB-78) of the same compound?
A: 21.1 µM (inactive)

Q: How did the GI50 (Hs-578T) turn out when N#CSc1[nH]cnc1C(N)=O was run?
A: > 100 µM (inactive)

Q: And the GI50 (T47D)?
A: > 75.5 µM (inactive)

Q: For CC(C)NCCNC(=O)c1ccccc1Nc1c(Cl)cccc1Cl, which GI50 (DMS-273) is on record?
A: 13.2 µM (inactive)

Q: What about the GI50 (KM-20L2) of the same compound?
A: 2.73 µM (inactive)

Q: What about the GI50 (XF498) of the same compound?
A: 2.92 µM (inactive)

Q: And the GI50 (DMS-114)?
A: 10.9 µM (inactive)

Q: What about the GI50 (SNB-78) of the same compound?
A: 14.6 µM (inactive)

Q: With O=C(O)C(C(=O)C(=O)C(C(=O)O)c1ccc(Cl)cc1)c1ccc(Cl)cc1 (stereo not given) as the compound, how does the GI50 (DMS-273) read?
A: 3.64 µM (inactive)

Q: What about the GI50 (KM-20L2) of the same compound?
A: 3.31 µM (inactive)

Q: And the GI50 (HOP-18)?
A: 5.32 µM (inactive)

Q: What about the GI50 (XF498) of the same compound?
A: 2.43 µM (inactive)

Q: And the GI50 (DMS-114)?
A: 2.24 µM (inactive)

Q: And the GI50 (SNB-78)?
A: 3.27 µM (inactive)

Q: Which results are given for c1ccc(CSc2ccccc2CN2CCN(Cc3ccccc3SCc3ccccc3)CCN(Cc3ccccc3SCc3ccccc3)CC2)cc1?
A: GI50 (Hs-578T): 1.85 µM (inactive); GI50 (T47D): 1.43 µM (inactive)

Q: How did the GI50 (Hs-578T) turn out when COc1ccc(C(=O)/C=C/c2cc(O)c(O)cc2F)c(OC)c1 was run?
A: 4.8 µM (inactive)

Q: What about the GI50 (T47D) of the same compound?
A: 4.05 µM (inactive)
